# Like-named read-outs stand apart in the source and are kept apart here.
# Legend:
# IMP-1 = IMP-1 (Serratia marcescens, UniProt P52699); experiment: Enzyme activity: IC50 in fluorescence assay with cephalosporin substrate FC5; type: biochemical; details: 100 pM IMP-1, 10 μM FC5, 10 min pre-incubation
# NDM-1 = NDM-1 (Klebsiella pneumoniae, UniProt C7C422); experiment: as above; type: biochemical; details: 50 pM NDM-1, 1.5 μM FC5, 10 min pre-incubation
# [1] = system: Klebsiella pneumoniae ATCC BAA-2146; experiment: Minimum inhibitory concentration (MIC), broth-microdilution (CLSI); type: cell-based; details: ATCCBAA2146, compound alone, K. pneumoniae ATCC BAA-2146, read-out: Intrinsic MIC
# [2] = system: Klebsiella pneumoniae ATCC BAA-2146; experiment: Checkerboard synergy assay in combination with Imipenem; type: cell-based; details: K. pneumoniae ATCC BAA-2146
# [3] = system: Klebsiella pneumoniae ATCC BAA-2146; experiment: Checkerboard synergy assay in combination with Meropenem; type: cell-based; details: K. pneumoniae ATCC BAA-2146
# Sequence of IMP-1 (P52699 19-246, looked up, species assumed): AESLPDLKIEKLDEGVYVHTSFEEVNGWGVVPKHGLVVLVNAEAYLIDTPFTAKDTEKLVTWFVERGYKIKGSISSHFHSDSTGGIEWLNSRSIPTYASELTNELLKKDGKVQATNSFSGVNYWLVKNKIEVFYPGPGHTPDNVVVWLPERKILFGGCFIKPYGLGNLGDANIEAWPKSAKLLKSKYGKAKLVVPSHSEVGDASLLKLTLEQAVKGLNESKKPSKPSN
# Sequence of NDM-1 (C7C422 29-270, looked up): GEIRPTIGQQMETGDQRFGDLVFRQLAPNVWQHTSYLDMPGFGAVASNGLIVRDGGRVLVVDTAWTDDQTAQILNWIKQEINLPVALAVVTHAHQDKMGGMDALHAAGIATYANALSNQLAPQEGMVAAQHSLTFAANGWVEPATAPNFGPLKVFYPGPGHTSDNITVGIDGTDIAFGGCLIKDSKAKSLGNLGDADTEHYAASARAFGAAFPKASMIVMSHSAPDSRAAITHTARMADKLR
smiles,measurement,setting,value
"COc1cc(OC)cc(-c2c(C(=O)O)[nH]c3c2CCc2ccccc2-3)c1 [Example 61, 3-(3,5-dimethoxyphenyl)-4,5-dihydro-1H-benzo[g]indole-2-carboxylic Acid]",IC50,IMP-1,0.495 µM
same,IC50,NDM-1,0.049 µM
same,MIC,[1]; Imipenem series,> 128 µg/mL
same,MIC,[1]; meropenem series,> 128 µg/mL
same,Fold reduction in Imipenem MIC in the presence of compounds (μg/mL) 4,[2]; compound at 4 μg/mL,4 fold
same,Fold reduction in Imipenem MIC in the presence of compounds (μg/mL) 8,[2]; compound at 8 μg/mL,8 fold
same,Fold reduction in Imipenem MIC in the presence of compounds (μg/mL) 16,[2]; compound at 16 μg/mL,8 fold
same,Fold reduction in Imipenem MIC in the presence of compounds (μg/mL) 32,[2]; compound at 32 μg/mL,8 fold
same,Fold reduction in meropenem MIC in the presence of compounds (μg/mL) 4,[3]; compound at 4 μg/mL,4 fold
same,Fold reduction in meropenem MIC in the presence of compounds (μg/mL) 8,[3]; compound at 8 μg/mL,4 fold
same,Fold reduction in meropenem MIC in the presence of compounds (μg/mL) 16,[3]; compound at 16 μg/mL,8 fold
same,Fold reduction in meropenem MIC in the presence of compounds (μg/mL) 32,[3]; compound at 32 μg/mL,8 fold
